# Source: patent US20240368151A1, “NOVEL ERGOLINES AND METHODS OF TREATING MOOD DISORDERS” (priority 2021, published 2024)
# Experiments:
# [1] = target: T1, 5-HT2A receptor (Homo sapiens (Human), UniProt P28223); assay type: cell-based; details: Ca^2+ flux, HEK293
# Procedure: (§1) Functional Assays at 5-HT2A, 5-HT2B, and 5-HT1A. Agonist activity at 5-HT2A, 5-HT2B, and 5-HT1A receptors was determined using a FLIPR Ca^2+ flux assay at WuXi AppTec (Hong Kong) Limited according to their standard protocols. Briefly, stably transfected cells expressing the receptor of interest (HEK293 for 5-HT2A and 5-HT2B; CHO cells for 5-HT1A) were grown and plated in a 384 well plate and incubated at 37° C. and 5% CO2 overnight. A solution of 250 mM probenecid in 1 mL FLIPR assay buffer was prepared fresh. This was combined with a fluorescent dye (Fluo-4 Direct™) to make a final assay concentration of 2.5 mM. […] The fluorescent dye was then added to the assay plate along with assay buffer to a final volume of 40 μL. The cell plate was incubated for 50 min at 37° C. and 5% CO2 and placed into the FLIPR Tetra along with the compound plate. 10p L of references and compounds were then transferred from the compound plate into the cell plate and the fluorescent signal was read.
# [2] = target: 5-HT2B receptor (Homo sapiens (Human), UniProt P41595); test: FLIPR Ca^2+ flux agonist assay at 5-HT2B; assay type: cell-based; details: HEK293
# 5-HT2B receptor, sequence (P41595 whole entry, looked up): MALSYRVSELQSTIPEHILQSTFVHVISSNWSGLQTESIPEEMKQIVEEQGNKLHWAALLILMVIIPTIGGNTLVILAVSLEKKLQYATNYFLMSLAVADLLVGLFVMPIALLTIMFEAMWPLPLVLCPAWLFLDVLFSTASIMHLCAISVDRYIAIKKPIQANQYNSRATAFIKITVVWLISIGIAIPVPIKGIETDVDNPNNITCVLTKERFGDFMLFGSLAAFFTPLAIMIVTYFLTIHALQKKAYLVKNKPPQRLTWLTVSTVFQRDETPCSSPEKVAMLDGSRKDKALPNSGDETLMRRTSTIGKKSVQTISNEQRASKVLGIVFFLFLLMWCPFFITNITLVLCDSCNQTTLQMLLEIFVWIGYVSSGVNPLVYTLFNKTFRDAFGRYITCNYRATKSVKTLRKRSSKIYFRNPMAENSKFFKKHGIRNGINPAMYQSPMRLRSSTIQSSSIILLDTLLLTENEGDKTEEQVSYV
# Procedure: as §1
# [3] = target: 5-HT1A receptor (Homo sapiens (Human), UniProt P08908); test: FLIPR Ca^2+ flux agonist assay at 5-HT1A; assay type: cell-based; details: CHO cells
# Procedure: as §1
# [4] = target: 5-HT1B receptor (Homo sapiens (Human), UniProt P28222); test: cAMP accumulation agonist assay at 5-HT1B; assay type: cell-based
# 5-HT1B receptor, sequence (P28222 whole entry, looked up): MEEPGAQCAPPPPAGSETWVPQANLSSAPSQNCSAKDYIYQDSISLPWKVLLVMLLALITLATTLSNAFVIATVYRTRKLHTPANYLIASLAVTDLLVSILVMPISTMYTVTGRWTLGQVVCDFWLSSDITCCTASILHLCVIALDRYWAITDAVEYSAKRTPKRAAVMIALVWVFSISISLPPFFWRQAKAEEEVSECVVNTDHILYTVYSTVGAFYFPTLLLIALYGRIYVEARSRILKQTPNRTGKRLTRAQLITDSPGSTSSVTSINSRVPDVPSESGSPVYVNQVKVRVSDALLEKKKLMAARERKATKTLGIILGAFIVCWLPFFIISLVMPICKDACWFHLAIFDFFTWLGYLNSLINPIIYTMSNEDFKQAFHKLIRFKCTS
# Procedure: Functional Assay at 5-HT1B. Agonist activity at 5-HT1B was determined using a cAMP accumulation protocol at WuXi AppTec (Hong Kong) Limited according to their standard protocols. Briefly, stably transfected cells were plated in an OptiPlate-384 well plate, incubated at RT for 60 mins, and cAMP standard solution (800 nM, 10 μL) was added to the blank well. Then, 10 μL detection reagent was added to each well, the plate incubated for 60 mins at RT, and the plate read using EnVision.
# [5] = Metabolic stability in human liver microsomes (HLM); assay type: in vitro ADME; details: both sexes, human, pooled human liver microsomes, pH 7.4, NADPH
# From the text: HLM Stability. Pooled HLM from adult male and female donors (Corning 452117) were used.
# [6] = Metabolic stability in mouse liver microsomes (MLM); assay type: in vitro ADME; details: mouse, pooled mouse liver microsomes, pH 7.4, MLM (CD-1), NADPH
# From the text: MLM Stability Pooled MLM from CD-1 mice (BIOIVT M00501) were used.
# [7] = Metabolic stability in rat liver microsomes (RLM); assay type: in vitro ADME; details: both sexes, rat, pooled rat liver microsomes, pH 7.4, NADPH
# [8] = target: human 5-HT2C receptor (Homo sapiens (Human), UniProt P28335); assay type: cell-based; details: Ca^2+ flux
# human 5-HT2C receptor, sequence (P28335 33-458 limits assumed): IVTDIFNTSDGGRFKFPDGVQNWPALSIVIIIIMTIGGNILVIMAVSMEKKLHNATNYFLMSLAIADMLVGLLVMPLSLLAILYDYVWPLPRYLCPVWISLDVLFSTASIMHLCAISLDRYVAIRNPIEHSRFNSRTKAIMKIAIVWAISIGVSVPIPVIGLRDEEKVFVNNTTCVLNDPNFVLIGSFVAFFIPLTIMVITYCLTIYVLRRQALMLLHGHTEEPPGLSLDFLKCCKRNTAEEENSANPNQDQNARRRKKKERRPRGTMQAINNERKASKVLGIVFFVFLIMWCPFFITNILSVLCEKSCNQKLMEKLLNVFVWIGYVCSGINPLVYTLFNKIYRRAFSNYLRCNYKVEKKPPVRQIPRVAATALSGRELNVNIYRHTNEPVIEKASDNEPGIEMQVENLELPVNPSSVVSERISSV
# [9] = target: T1, 5-HT2A receptor; assay type: cell-based; details: beta-arrestin recruitment
# Procedure: The degree of arrestin bias varied substantially across the other compounds tested as well.
# Arrestin Functional Assay at 5-HT2A. Recruitment of beta-arrestin was determined using a PathHunter assay at Eurofins DiscoverX (Fremont, CA) according to their standard protocols. PathHunter GPCR beta-arrestin assays take advantage of DiscoverX's proprietary Enzyme Fragment Complementation technology. The GPCR is fused in frame with a small enzyme donor fragment ProLink™ (PK) and co-expressed in cells stably expressing a fusion protein of beta-arrestin and the larger, N-terminal deletion mutant of beta-galactosidase. Activation of the GPCR (5-HT2A receptor in this case) stimulates binding of beta-arrestin to the PK-tagged GPCR and forces complementation of the two enzyme fragments, resulting in the formation of an active beta-galactosidase enzyme. This interaction leads to an increase in enzyme activity that can be measured using chemiluminescent PathHunter Detection Reagents. Briefly, PathHunter cells expressing 5-HT2A receptors were seeded in a volume of 20 μL into 384-well plates and incubated at 37° C. for the appropriate time prior to testing. […] Plates were then imaged on a microplate reader and the agonist activity was calculated using the following formula: % Activity=100%×(mean RLU of test sample−mean RLU of vehicle control)/(mean MAX control ligand−mean RLU of vehicle control), where RLU=relative light units.
# [10] = tested on: C57BL/6 mice; test: Mouse head twitch response (HTR) assay; assay type: in vivo; details: mouse HTR, SC; for # HTR at Most Efficacious Dose / Emax (95% CI): 20 min observation; for Emax (95% CI): curve fit
# Procedure: Agonists of the 5-HT2A receptor are well known to induce this effect in rodents and the potency of this HTR is correlated with hallucinogenic potency in humans.
# Animals. Adult male C57BL/6 mice, aged 6-8 weeks (body weight 20-25 g) were used in this experiment. Animals were housed under controlled temperatures and 12-hour light/dark cycles (lights on between 07:00-19:00 h), with ad libitum food and water. This study was carried out in strict accordance with the requirements of the Committee for the Purpose of Control and Supervision of Experiments on Animals (CPCSEA), India. All efforts were made to minimize suffering.
# Drugs and Drug Administration. Compound 1 was synthesized as described above. It was administered subcutaneously (SC) dissolved in saline vehicle at a volume of 10 mL/kg. Five doses were tested, with n=6 animals/group. Doses were calculated on the basis of the freebase.
# Procedure. Mice were administered one dose of the drug and immediately placed into a small open field for behavioral observation. Animals were observed continuously for 20 mins and the number of head twitches (HTs) were counted by an observer blind to the treatment condition.
# Statistical Analysis. The data points shown are the mean±standard error of the mean (SEM). Analysis was performed using GraphPad Prism 6. Curves were fit using a non-linear gaussian distribution to calculate ED50 and Emax values.
# Additional disclosed compounds were tested in the mouse head twitch response (HTR) assay according to the procedure described in Example 34. […] Lastly, compounds with much larger benzyl and phenethyl substituents on the amine nitrogen (e.g., 10 and 11) were low efficacy in this assay, consistent with their lower maximal efficacy in the arrestin functional assay (see Example 32).
Structure (SMILES),5-HT2A % Act @ Max Dose [1],5-HT2B % Act @ Max Dose [2],5-HT1A % Act @ Max Dose [3],5-HT1B % Act @ Max Dose [4],half-life at 1 μM [5],half-life at 1 μM [6],half-life at 1 μM [7],5-HT2C % Act @ Max Dose [8],5-HT2A Arrestin % Act @ Max Dose [9],"agonist type in the 5-HT2A arrestin recruitment assay, in words [9]",Most Efficacious Dose [10],# HTR at Most Efficacious Dose [10],Emax (95% CI) [10]
"CCN(CC)C(=O)[C@@H]1C=C2c3cccc4[nH]cc(c34)C[C@H]2N(Cc2cccc(OC)c2)C1 [Compound 18, (6aR,9R)-N,N-diethyl-7-(3-methoxybenzyl)-4,6,6a,7,8,9-hexahydroindolo[4,3-fg]quinoline-9-carboxamide]",61.09%,4.69%,28.93%,83.31%,13.6 min,2.6 min,5.3 min,–,–,–,–,–,–
"CCN(CC)C(=O)[C@@H]1C=C2c3cccc4[nH]cc(c34)C[C@H]2N(Cc2ccccn2)C1 [Compound 22, (6aR,9R)-N,N-diethyl-7-(pyridin-2-ylmethyl)-4,6,6a,7,8,9-hexahydroindolo[4,3-fg]quinoline-9-carboxamide]",64.47%,7.74%,57.33%,89.15%,23.8 min,9.2 min,13.2 min,–,–,–,–,–,–
"CCC[C@@H](C)NC(=O)[C@@H]1C=C2c3cccc4[nH]cc(c34)C[C@H]2N(CCC)C1 [Compound 7, (6aR,9R)-N-((R)-pentan-2-yl)-7-propyl-4,6,6a,7,8,9-hexahydroindolo[4,3-fg]quinoline-9-carboxamide]",94.52%,94.75%,107.16%,–,1.65 min,0.541 min,1.61 min,114.78%,110.2%,full agonists,(1 mg/kg),16.667,720.4
"CCN(CC)C(=O)[C@@H]1C=C2c3cccc4[nH]cc(c34)C[C@H]2N(CCc2ccccn2)C1 [Compound 23, (6aR,9R)-N,N-diethyl-7-(2-(pyridin-2-yl)ethyl)-4,6,6a,7,8,9-hexahydroindolo[4,3-fg]quinoline-9-carboxamide]",85.397%,12.50%,46.19%,83.68%,7.2 min,1.8 min,4.2 min,–,–,–,–,–,–
"CCC(CC)NC(=O)[C@@H]1C=C2c3cccc4[nH]cc(c34)C[C@H]2N(C)C1 [Int14, (6aR,9R)-7-methyl-N-(pentan-3-yl)-4,6,6a,7,8,9-hexahydroindolo[4,3-fg]quinoline-9-carboxamide]",93.33%,9.84%,102.46%,–,17.6 min,6.07 min,38 min,99.149%,44.377%,partial agonists,(1 mg/kg),10.5,21.63
"CC[C@@H](C)NC(=O)[C@@H]1C=C2c3cccc4[nH]cc(c34)C[C@H]2N(C)C1 [Int8, (6aR,9R)-N-((R)-sec-butyl)-7-methyl-4,6,6a,7,8,9-hexahydroindolo[4,3-fg]quinoline-9-carboxamide]",96.25%,17.7%,90.25%,–,64.9 min,39.9 min,99.5 min,98.245%,46.06%,partial agonists,(1 mg/kg),13.5,14.34
